# Experimental data published in US20230159532A1, “PARATHYROID HORMONE (PTH) RECEPTOR ANTAGONISTS AND USES THEREOF” (Crinetics Pharmaceuticals, Inc., priority 2021, published 2023).
# Target: T1, human PTHR1 receptor (Homo sapiens, UniProt Q03431)
# T1 construct: purchased Eurofins HTS030M
# T1 sequence (Q03431 27-593): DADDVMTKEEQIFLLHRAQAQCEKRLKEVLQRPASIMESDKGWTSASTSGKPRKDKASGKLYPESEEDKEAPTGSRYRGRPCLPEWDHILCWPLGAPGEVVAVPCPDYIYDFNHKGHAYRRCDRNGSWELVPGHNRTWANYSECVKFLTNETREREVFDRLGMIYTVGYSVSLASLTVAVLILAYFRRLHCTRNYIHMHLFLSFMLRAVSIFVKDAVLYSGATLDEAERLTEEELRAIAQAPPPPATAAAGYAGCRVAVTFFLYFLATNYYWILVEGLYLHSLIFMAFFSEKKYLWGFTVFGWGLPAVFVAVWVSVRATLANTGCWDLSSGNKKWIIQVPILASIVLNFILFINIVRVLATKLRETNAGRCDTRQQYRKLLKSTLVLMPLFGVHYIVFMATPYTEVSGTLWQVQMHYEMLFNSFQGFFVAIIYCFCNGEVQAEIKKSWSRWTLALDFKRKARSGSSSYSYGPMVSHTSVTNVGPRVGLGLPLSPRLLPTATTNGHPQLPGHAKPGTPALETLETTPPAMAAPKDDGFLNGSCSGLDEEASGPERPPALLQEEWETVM
# Experiment: Competitive antagonist binding assay for hPTH-R1 (radioactive competition binding, SPA beads)
# Details: human PTHR1 membranes, [125I]-[Nle8,18,Tyr34]-PTH(1-34) 0.2 nM, 90 minutes at room temperature; read-out: hPTHR1 Ki
# Outline: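 Human PTHR1 membranes on SPA beads incubated 90 min at room temperature with compound (typically 0-10,000 nM final) and 0.2 nM [125I]-[Nle8,18,Tyr34]-PTH(1-34) in HEPES buffer with MgCl2, CaCl2, BSA, Triton X-100 and protease inhibitors, pH 7.4. Scintillation signal read; Ki values derived.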
row,Compound,Ki
1,"CCN1C(=O)N(c2c(F)cc(NCCN[C@@H]3CC[C@@H]3O)cc2F)c2cc(C#N)ccc2-c2cc(C(F)(F)F)cnc21 [1-184, 10-{2,6-difluoro-4-[(2-{[(1R,2S)-2-hydroxycyclobutyl]amino}ethyl)amino]phenyl}-8-ethyl-9-oxo-4-(trifluoromethyl)-6,8,10-triazatricyclo[9.4.0.0^2,7]pentadeca-1(11),2(7),3,5,12,14-hexaene-13-carbonitrile]",< 100 nM
2,"CCN1C(=O)N(c2c(F)cc(NCCNCC(=O)O)cc2F)c2cc(Cl)ccc2-c2cc(Cl)cnc21 [1-242, 2-({2-[(4-{4,13-dichloro-8-ethyl-9-oxo-6,8,10-triazatricyclo[9.4.0.0^2,7]pentadeca-1(11),2(7),3,5,12,14-hexaen-10-yl}-3,5-difluorophenyl)amino]ethyl}amino)acetic acid]",< 100 nM
3,"CCN1C(=O)N(c2c(F)cc(NCCNC)cc2F)c2cc(Cl)ccc2-c2cc(C(F)(F)F)cnc21 [1-57, 13-chloro-10-(2,6-difluoro-4-{[2-(methylamino)ethyl]amino}phenyl)-8-ethyl-4-(trifluoromethyl)-6,8,10-triazatricyclo[9.4.0.0^2,7]pentadeca-1(11),2(7),3,5,12,14-hexaen-9-one]",< 100 nM
4,"CCN1C(=O)N(c2c(F)cc(NCCNCCC#N)cc2F)c2cc(C#N)ccc2-c2cc(Cl)cnc21 [1-154, 4-chloro-10-[4-({2-[(2-cyanoethyl)amino]ethyl}amino)-2,6-difluorophenyl]-8-ethyl-9-oxo-6,8,10-triazatricyclo[9.4.0.0^2,7]pentadeca-1(11),2(7),3,5,12,14-hexaene-13-carbonitrile]",< 100 nM
5,"CCN1C(=O)N(c2c(F)cc(NCCNC(C)CO)cc2F)c2cc(C#N)ccc2-c2cc(Cl)cnc21 (stereo not shown) [1-149, 4-chloro-10-[2,6-difluoro-4-({2-[(1-hydroxypropan-2-yl)amino]ethyl}amino)phenyl]-8-ethyl-9-oxo-6,8,10-triazatricyclo[9.4.0.0^2,7]pentadeca-1(11),2(7),3,5,12,14-hexaene-13-carbonitrile]",< 100 nM
6,"CCN1C(=O)N(c2c(F)cc(NCCNCC(C)O)cc2F)c2cc(C#N)ccc2-c2cc(Cl)cnc21 (stereo not shown) [1-137, 4-chloro-10-[2,6-difluoro-4-({2-[(2-hydroxypropyl)amino]ethyl}amino)phenyl]-8-ethyl-9-oxo-6,8,10-triazatricyclo[9.4.0.0^2,7]pentadeca-1(11),2(7),3,5,12,14-hexaene-13-carbonitrile]",< 100 nM

# The next lines start with the values.
row,Ki,Compound
1,< 100 nM,"CCN1C(=O)N(c2c(F)cc(NCCNCCO)cc2F)c2nc(C#N)ccc2-c2cc(F)cnc21 [3-14, 8-[2,6-difluoro-4-({2-[(2-hydroxyethyl)amino]ethyl}amino)phenyl]-10-ethyl-14-fluoro-9-oxo-6,8,10,12-tetraazatricyclo[9.4.0.0^2,7]pentadeca-1(11),2(7),3,5,12,14-hexaene-5-carbonitrile]"
2,< 100 nM,"CCN1C(=O)N(c2c(F)cc(NCCNCCO)cc2F)c2cc(Cl)ccc2-c2c1ncc(F)c2C [3-6, 13-chloro-10-[2,6-difluoro-4-({2-[(2-hydroxyethyl)amino]ethyl}amino)phenyl]-8-ethyl-4-fluoro-3-methyl-6,8,10-triazatricyclo[9.4.0.0^2,7]pentadeca-1(11),2(7),3,5,12,14-hexaen-9-one]"
3,< 100 nM,"CCN1C(=O)N(c2c(F)cc(NCCNCCO)cc2F)c2cc(C#N)ncc2-c2cc(F)cnc21 [3-12, 8-[2,6-difluoro-4-({2-[(2-hydroxyethyl)amino]ethyl}amino)phenyl]-10-ethyl-14-fluoro-9-oxo-4,8,10,12-tetraazatricyclo[9.4.0.0^2,7]pentadeca-1(11),2(7),3,5,12,14-hexaene-5-carbonitrile]"
4,< 100 nM,"CCN1C(=O)N(c2c(F)cc(NCCNCCO)cc2F)c2cc(Cl)cnc2-c2cc(Cl)cnc21 [3-21, 5,14-dichloro-8-[2,6-difluoro-4-({2-[(2-hydroxyethyl)amino]ethyl}amino)phenyl]-10-ethyl-3,8,10,12-tetraazatricyclo[9.4.0.0^2,7]pentadeca-1(11),2(7),3,5,12,14-hexaen-9-one]"
